Some test systems named below: NCI-H23 lung; SN12C renal; 786-0 renal; M14 melanoma; BT-549 breast; SNB-75 CNS; SR leukemia; NCI/ADR-RES ovarian.
Common to all, as to experiment: NCI-60 cell line screen, 48 h

SMILES strings stand for the structures. Values joined by “and” are separate entries in the source; they are usually repeats but may differ in a detail not shown here. Identical values can stand only once.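 In this assay, cells in 96-well plates receive the compound at five concentrations for 48 hours. Endpoints are linearly interpolated between the surrounding concentrations. At the GI50, growth is halved. TGI is the concentration that stops growth completely.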

As to `O=C(/C=C/c1ccccc1)OCC1=C[C@@H](O)[C@@H]2C=CO[C@@H](OC3OC(CO)C(O)C(O)C3O)[C@H]12` (some centres undefined), the TGI in the assay with NCI-H23 lung, in the assay on SN12C renal, with 786-0 renal, in the assay with M14 melanoma, in the assay on BT-549 breast and in the assay with SNB-75 CNS was > 100 µM each time. For the same compound, the TGI with SR leukemia and with NCI/ADR-RES ovarian was > 100 µM each time.
As to `c1cc2c(c(NC3=NCCN3)c1)CCCC2`, the TGI with NCI-H23 lung, with SN12C renal, with 786-0 renal, with M14 melanoma, in the assay with BT-549 breast and in the assay with SNB-75 CNS was > 100 µM throughout. The TGI in the assay on SR leukemia and with NCI/ADR-RES ovarian was > 100 µM in each case.
Turning to `COc1cc(-c2nn(-c3cccc(NC(=O)CCN4CCN(C)CC4)c3)cc2-c2ccncc2)ccc1Cl`, the GI50 in the assay with NCI-H23 lung is 2.38 µM; in the assay with SN12C renal it was 2.05 µM; with 786-0 renal, 1.54 µM; in the assay on M14 melanoma, 1.09 µM; with BT-549 breast, 7.26 µM; in the assay on SNB-75 CNS, 0.591 µM. Moreover, the figures for the GI50 with SR leukemia and in the assay on NCI/ADR-RES ovarian were 0.471 µM and 2.62 µM, respectively. The TGI in the assay on NCI-H23 lung was found to be 10.4 µM; in the assay on SN12C renal, 8.45 µM; in the assay with 786-0 renal, 3.43 µM; in the assay on M14 melanoma, 2.71 µM; in the assay on BT-549 breast it was 20.4 µM; in the assay with SNB-75 CNS it was 2.92 µM. For the same compound, the TGI with SR leukemia is 2.64 µM; in the assay on NCI/ADR-RES ovarian, 8.76 µM.
Turning to `COC1=CC2CCN3Cc4cc5c(cc4C(C1O)C23)OCC5` (centres undefined), the GI50 in the assay with NCI-H23 lung was 2.17 µM; in the assay on SN12C renal, 1.06 µM; with 786-0 renal, 2.47 µM; with M14 melanoma, 3 µM; in the assay on BT-549 breast it was 3.94 µM; in the assay on SNB-75 CNS, 1.24 µM. For the same compound, the GI50 in the assay with NCI/ADR-RES ovarian was 3 µM. Further, the TGI is 8.28 µM in the assay on NCI-H23 lung; 6.08 µM in the assay with SN12C renal; > 61.9 µM with 786-0 renal; 19.3 µM with M14 melanoma; > 47 µM in the assay on BT-549 breast; 6.24 µM in the assay with SNB-75 CNS. Moreover, the values for the TGI in the assay on SR leukemia and with NCI/ADR-RES ovarian were > 100 µM and 18.4 µM, respectively.
As to `COc1cc(NC(=O)c2ccccc2Nc2ccnc(C(F)(F)F)c2)cc(OC)c1OC`, the GI50 was 44 µM in the assay with NCI-H23 lung; 52.9 µM in the assay with SN12C renal; > 100 µM with 786-0 renal; 73.3 µM in the assay with M14 melanoma; 43.5 µM with BT-549 breast; 34.8 µM in the assay on SNB-75 CNS. The results for the GI50 with SR leukemia and in the assay on NCI/ADR-RES ovarian were 47.3 µM and 32.3 µM, respectively. Further, the TGI in the assay with NCI-H23 lung, with SN12C renal, in the assay on 786-0 renal, in the assay with M14 melanoma, with BT-549 breast and with SNB-75 CNS was > 100 µM in each case. The TGI in the assay with SR leukemia and with NCI/ADR-RES ovarian was > 100 µM each time.
`Cc1cn2c(/C=C3/C(=O)Nc4ccc(Cl)cc43)c(C)nc2s1`: the GI50 in the assay on NCI-H23 lung was 0.0454 µM; with 786-0 renal, < 0.0403 µM; in the assay on M14 melanoma it was < 0.028 µM; with BT-549 breast, 5.94 µM; with SNB-75 CNS, 16.3 µM; in the assay on NCI/ADR-RES ovarian, 0.0211 µM. Besides, the TGI with NCI-H23 lung is 0.37 µM; in the assay with SN12C renal it was 65 µM; in the assay with 786-0 renal, 31.1 µM; in the assay with M14 melanoma, > 45.7 µM; in the assay with BT-549 breast, 97.1 µM; in the assay on SNB-75 CNS, 29.8 µM. In addition, in the assay on SR leukemia, the TGI was > 100 µM.
For the compound `COc1cc(NC(C)CCCN2C(=O)c3ccccc3C2=O)c2ncccc2c1OC` (centres undefined), the GI50 in the assay on NCI-H23 lung is 26.3 µM; with SN12C renal, 66.9 µM; with 786-0 renal, 54.1 µM; with M14 melanoma, 30.5 µM; in the assay on BT-549 breast, 23.4 µM; with SNB-75 CNS, 54.4 µM. For the same compound, the results for the GI50 with SR leukemia and in the assay on NCI/ADR-RES ovarian were 23.7 µM and 24 µM, respectively. Moreover, the TGI with NCI-H23 lung is > 100 µM; in the assay with SN12C renal, > 100 µM; in the assay with 786-0 renal it was > 100 µM; in the assay on M14 melanoma, > 100 µM; in the assay on BT-549 breast, 83.7 µM; with SNB-75 CNS, > 100 µM. The TGI in the assay with SR leukemia and in the assay on NCI/ADR-RES ovarian was > 100 µM each time.
With `CNc1ncc2cc(-c3cc(NC(=O)NCCC(C)(C)C)c(F)cc3C)c(C)nc2n1`, the GI50 was 0.147 µM and 0.186 µM in the assay on NCI-H23 lung; 0.485 µM and 0.411 µM in the assay on SN12C renal; 0.811 µM and 0.81 µM in the assay on 786-0 renal; < 0.01 µM and 0.0105 µM in the assay on M14 melanoma; 3.29 µM and 2.49 µM in the assay with BT-549 breast; 0.949 µM and 1.04 µM with SNB-75 CNS. Also, the GI50 with SR leukemia was 0.811 µM and 3.13 µM; in the assay on NCI/ADR-RES ovarian, 1.5 µM and 1.35 µM. For the same compound, the TGI is > 42.1 µM in the assay on NCI-H23 lung; > 100 µM in the assay on SN12C renal; > 100 µM in the assay on 786-0 renal; > 100 µM in the assay on BT-549 breast; 7.36 µM and 7.6 µM in the assay with SNB-75 CNS; > 75.2 µM in the assay on SR leukemia. Also, the TGI in the assay on NCI/ADR-RES ovarian was > 100 µM.
Regarding `O=C1NC(=N[C@H](CO)c2ccccc2)S/C1=C\c1ccc2ncccc2c1`, the GI50 is 6.42 µM in the assay with NCI-H23 lung; 5.02 µM with SN12C renal; 7.31 µM in the assay with 786-0 renal; 7.46 µM in the assay with M14 melanoma; 3.95 µM in the assay with BT-549 breast; 1.46 µM with SNB-75 CNS. Besides, the GI50 with SR leukemia is 0.786 µM; with NCI/ADR-RES ovarian it was > 19.3 µM. For the same compound, the TGI with NCI-H23 lung is > 25 µM; in the assay with SN12C renal, > 25 µM; in the assay on 786-0 renal it was > 25 µM; with M14 melanoma, > 25 µM; in the assay on BT-549 breast it was > 16 µM; in the assay with SNB-75 CNS, 17.7 µM. Also, the TGI with SR leukemia was 4.85 µM; in the assay on NCI/ADR-RES ovarian it was > 25 µM.
Turning to `CS(=O)(=O)N1CCc2c(-c3cnc(N)nc3)nc(N3CCOCC3)nc21`, the GI50 in the assay on NCI-H23 lung was 1.94 µM and 1.37 µM; in the assay with SN12C renal, 0.648 µM and 0.667 µM; in the assay on 786-0 renal it was 0.696 µM and 0.562 µM; with M14 melanoma, 1.43 µM and 0.625 µM; in the assay with BT-549 breast it was 0.51 µM and 0.479 µM; in the assay with SNB-75 CNS it was 0.146 µM and 0.135 µM. Moreover, the GI50 is 2.08 µM and 1.96 µM in the assay on SR leukemia; 2.16 µM and 1.63 µM in the assay on NCI/ADR-RES ovarian. Besides, the TGI is > 100 µM in the assay with NCI-H23 lung; > 100 µM with SN12C renal; > 8.81 µM and 16.5 µM in the assay on 786-0 renal; > 41 µM in the assay on M14 melanoma; 6.08 µM and 6.39 µM in the assay with BT-549 breast; 1.3 µM and 0.929 µM in the assay with SNB-75 CNS. Besides, the TGI in the assay on SR leukemia and with NCI/ADR-RES ovarian was > 100 µM throughout.

Values taken from PubChem BioAssay (NCI).
